Assays:
EGFR mutant T790M = molecular target: T1, EGFR mutant T790M (Homo sapiens, UniProt P00533, T790M); experiment: Kinase inhibition assay, EGFR mutant T790M; details: biochemical potency;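 note: truncated human EGFR mutant enzyme preincubated two hours with compound, then ATP plus ULight-PolyGT peptide for one hour, Europium-labeled antibody LANCE detection, IC50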
T1 construct: truncated human JAK3, EGFR mutants such as del E746-A750; purchased Carna Biosciences

[1] = molecular target: T2, EGFR mutant Del19 (E746-A750) (Homo sapiens, UniProt P00533, DEL746-750); experiment: Kinase inhibition assay, EGFR del E746-A750; type: biochemical; details: read-out: EGFR mutants Del19 (E746-A750);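 note: truncated human EGFR mutant kinase, two-hour preincubation with compound, then one-hour reaction with ATP and ULight-PolyGT peptide, LANCE Europium-antibody phosphorylation readout, IC50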
T2 construct: truncated human JAK3, EGFR mutants such as del E746-A750; purchased Carna Biosciences
T2 sequence (P00533 with tags, fused parts or gaps DEL746-750 limits assumed): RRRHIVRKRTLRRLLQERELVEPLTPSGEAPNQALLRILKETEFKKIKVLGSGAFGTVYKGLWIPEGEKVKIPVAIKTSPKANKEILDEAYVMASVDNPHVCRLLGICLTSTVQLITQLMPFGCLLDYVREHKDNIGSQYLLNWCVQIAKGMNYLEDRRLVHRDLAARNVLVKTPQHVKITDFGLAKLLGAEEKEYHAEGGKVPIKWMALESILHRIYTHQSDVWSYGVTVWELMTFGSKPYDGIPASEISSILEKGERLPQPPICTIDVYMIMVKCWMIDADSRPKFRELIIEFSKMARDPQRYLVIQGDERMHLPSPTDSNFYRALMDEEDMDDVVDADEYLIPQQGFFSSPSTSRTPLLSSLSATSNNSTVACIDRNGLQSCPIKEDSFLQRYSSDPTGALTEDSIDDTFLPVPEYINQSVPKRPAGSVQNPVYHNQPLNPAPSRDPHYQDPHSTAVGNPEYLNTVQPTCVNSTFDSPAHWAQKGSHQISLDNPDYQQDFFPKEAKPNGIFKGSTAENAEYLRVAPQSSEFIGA

EGFR mutant L858R = molecular target: T3, EGFR mutant L858R (Homo sapiens, UniProt P00533, L858R); experiment: Kinase inhibition assay, EGFR L858R; type: biochemical; details: read-out: EGFR mutants L858R;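 note: truncated human EGFR L858R kinase with compound preincubation, ULight-PolyGT peptide phosphorylation read by Europium-antibody Lance detection, IC50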
T3 construct: truncated human JAK3, EGFR mutants such as del E746-A750; purchased Carna Biosciences
T3 sequence (P00533 669-1210 L858R limits assumed): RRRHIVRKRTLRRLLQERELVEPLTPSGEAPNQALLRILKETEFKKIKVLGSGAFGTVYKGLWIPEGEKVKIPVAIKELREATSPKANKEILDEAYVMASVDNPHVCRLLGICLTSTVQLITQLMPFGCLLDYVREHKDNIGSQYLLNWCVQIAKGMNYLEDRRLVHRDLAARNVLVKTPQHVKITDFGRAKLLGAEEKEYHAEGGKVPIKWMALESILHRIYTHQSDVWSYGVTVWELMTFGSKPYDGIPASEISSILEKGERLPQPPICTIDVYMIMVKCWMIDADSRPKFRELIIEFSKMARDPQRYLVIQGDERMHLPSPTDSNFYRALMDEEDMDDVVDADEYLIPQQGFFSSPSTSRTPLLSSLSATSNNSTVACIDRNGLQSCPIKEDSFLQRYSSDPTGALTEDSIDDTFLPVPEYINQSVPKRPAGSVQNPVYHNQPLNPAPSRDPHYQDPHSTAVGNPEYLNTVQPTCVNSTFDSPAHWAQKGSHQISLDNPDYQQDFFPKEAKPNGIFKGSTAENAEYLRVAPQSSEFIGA

EGFR mutant L858R/T790M = molecular target: T4, EGFR mutant L858R/T790M (Homo sapiens, UniProt P00533, L858R/T790M); experiment: Kinase inhibition assay, EGFR L858R/T790M; type: biochemical; details: read-out: EGFR mutants L858R/T790M;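 note: truncated human enzyme preincubated two hours with compound, then one hour with one millimolar ATP and ULight-PolyGT peptide, Europium-labeled antibody detection, IC50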
T4 construct: truncated human JAK3, EGFR mutants such as del E746-A750; purchased Carna Biosciences
T4 sequence (P00533 669-1210 T790M/L858R limits assumed): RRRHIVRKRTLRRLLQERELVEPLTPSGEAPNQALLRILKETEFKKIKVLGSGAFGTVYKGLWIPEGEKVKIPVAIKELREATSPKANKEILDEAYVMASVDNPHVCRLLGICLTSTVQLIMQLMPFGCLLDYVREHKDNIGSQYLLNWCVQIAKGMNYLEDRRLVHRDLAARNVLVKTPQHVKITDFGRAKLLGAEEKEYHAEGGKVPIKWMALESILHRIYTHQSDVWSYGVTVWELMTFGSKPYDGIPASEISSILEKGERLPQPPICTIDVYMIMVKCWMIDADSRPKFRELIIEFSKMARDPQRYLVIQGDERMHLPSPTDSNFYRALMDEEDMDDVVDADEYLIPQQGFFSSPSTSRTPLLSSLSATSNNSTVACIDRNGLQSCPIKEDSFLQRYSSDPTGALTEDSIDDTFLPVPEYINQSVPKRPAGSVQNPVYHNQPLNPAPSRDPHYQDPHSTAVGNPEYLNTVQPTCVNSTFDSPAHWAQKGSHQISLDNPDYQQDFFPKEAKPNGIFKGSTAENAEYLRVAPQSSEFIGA

EGFR mutant Del19/T790M = molecular target: T5, EGFR mutant Del19/T790M (Homo sapiens, UniProt P00533, DEL746-750/T790M); experiment: Kinase inhibition assay, EGFR del E746-A750/T790M; type: biochemical; details: read-out: EGFR mutants Del19/T790M
T5 construct: truncated human JAK3, EGFR mutants such as del E746-A750; purchased Carna Biosciences
T5 sequence (P00533 with tags, fused parts or gaps DEL746-750/T790M limits assumed): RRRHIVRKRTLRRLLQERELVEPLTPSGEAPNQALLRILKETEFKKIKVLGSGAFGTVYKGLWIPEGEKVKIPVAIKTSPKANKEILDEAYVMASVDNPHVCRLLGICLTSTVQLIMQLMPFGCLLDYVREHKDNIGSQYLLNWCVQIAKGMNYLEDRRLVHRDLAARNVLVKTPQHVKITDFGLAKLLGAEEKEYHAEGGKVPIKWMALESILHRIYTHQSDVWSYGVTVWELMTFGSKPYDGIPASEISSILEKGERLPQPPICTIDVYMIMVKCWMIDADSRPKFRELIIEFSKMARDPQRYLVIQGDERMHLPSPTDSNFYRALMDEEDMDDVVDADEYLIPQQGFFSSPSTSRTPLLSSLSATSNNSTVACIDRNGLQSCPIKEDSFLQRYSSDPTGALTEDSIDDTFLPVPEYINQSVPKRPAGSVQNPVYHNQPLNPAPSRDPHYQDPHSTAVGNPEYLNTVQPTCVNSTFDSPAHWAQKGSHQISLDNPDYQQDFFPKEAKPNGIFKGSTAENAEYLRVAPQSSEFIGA

SYK = molecular target: T6, SYK (Homo sapiens, UniProt P43405); experiment: Kinase inhibition assay, SYK; type: biochemical; details: biochemical potency;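 note: purified full-length human SYK pre-incubated 30 min with compound, then ULight-TK peptide phosphorylation for 1 h, detected with Europium-labeled antibody in Lance buffer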
T6 construct: Purified human, full-length SYK, KDR; purchased Carna Biosciences

H2073 (EGFR wildtype) = experiment: Cell viability assay, H2073; type: cell-based; details: NCI-H2073; cellular potency; 72-hour incubation; ATPLite;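 note: NSCLC cell line whose survival relies on wildtype EGFR, treated with serially diluted compound, cytotoxic effect judged from remaining cell viability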
[2] = test system: PC9 (EGFR del E746-A750 mutant); experiment: Cell viability assay, PC9; type: cell-based; details: for Selectivity over wildtype, Wildtype vs mutant H2073/PC9 (fold): cellular potency ratio; for IC50: cellular potency, 72-hour incubation, ATPLite, read-out: EGFR Mutants PC9;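 for all read-outs here: NSCLC PC9 cells, whose viability relies on EGFR del E746-A750, exposed to serially diluted compound for 72 h at 37 °C, ATPLite read-out, IC50, H2073 as EGFR wildtype line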
[3] = test system: H1975 (EGFR L858R/T790M mutant); experiment: Cell viability assay, H1975; type: cell-based; details: for IC50: Homo sapiens, NCI-H1975, cellular potency, 72-hour incubation, ATPLite, read-out: EGFR Mutants H1975; for Selectivity over wildtype, Wildtype vs mutant H2073/H1975 (fold): cellular potency ratio;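 for all read-outs here: NSCLC cells whose survival relies on EGFR L858R/T790M, exposed 72 h to serially diluted compound, ATP-based viability readout, with the H2073 line (wildtype EGFR dependent) as wildtype comparator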

T1 sequence (P00533 669-1210 T790M limits assumed): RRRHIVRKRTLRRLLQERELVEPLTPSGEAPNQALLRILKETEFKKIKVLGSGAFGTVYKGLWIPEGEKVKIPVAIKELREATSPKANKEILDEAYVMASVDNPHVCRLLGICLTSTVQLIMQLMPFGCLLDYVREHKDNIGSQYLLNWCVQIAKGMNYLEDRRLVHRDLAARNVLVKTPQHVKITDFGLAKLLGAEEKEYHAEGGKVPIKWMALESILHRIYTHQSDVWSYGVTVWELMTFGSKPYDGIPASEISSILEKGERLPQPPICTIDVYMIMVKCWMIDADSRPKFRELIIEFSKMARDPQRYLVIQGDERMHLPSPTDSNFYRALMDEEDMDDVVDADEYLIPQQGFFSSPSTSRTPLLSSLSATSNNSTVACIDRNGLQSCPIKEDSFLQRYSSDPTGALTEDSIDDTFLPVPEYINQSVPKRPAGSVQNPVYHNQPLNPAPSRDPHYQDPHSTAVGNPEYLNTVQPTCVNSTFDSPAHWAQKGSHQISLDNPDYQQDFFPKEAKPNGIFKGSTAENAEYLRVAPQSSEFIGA

SMILES | IC50 (EGFR mutant T790M) | IC50 [1] | IC50 (EGFR mutant L858R) | IC50 (EGFR mutant L858R/T790M) | IC50 (EGFR mutant Del19/T790M) | IC50 (SYK) | IC50 (H2073 (EGFR wildtype)) | Selectivity over wildtype, Wildtype vs mutant H2073/PC9 (fold) [2] | IC50 [2] | IC50 [3] | Selectivity over wildtype, Wildtype vs mutant H2073/H1975 (fold) [3]
C=CC(=O)Nc1cc(Nc2nccc(-n3cc(CN4CCC4)c(-c4cccs4)n3)n2)c(OC)cc1N1CCOCC1 [Compound 118, N-(5-(4-(4-(azetidin-1-ylmethyl)-3-(thiophen-2-yl)-1H-pyrazol-1-yl)pyrimidin-2-ylamino)-4-methoxy-2-morpholinophenyl)acrylamide] | < 0.02 µM | < 0.02 µM | < 0.02 µM | < 0.02 µM | < 0.02 µM | 0.02 to 0.2 µM | 0.201 to 1 µM | 20-200 fold | < 0.02 µM | < 0.02 µM | 20-200 fold
C=CCC(=O)Nc1cc(Nc2nccc(-n3cc(CN(C)C)c(-c4ccccc4)n3)n2)c(OC)cc1N1CCOCC1 [Compound 154, N-(5-(4-(4-((dimethylamino)methyl)-3-phenyl-1H-pyrazol-1-yl)pyrimidin-2-ylamino)-4-methoxy-2-morpholinophenyl)but-3-enamide, reference compound] | – | – | – | – | – | – | > 1 µM | <20 fold | 0.02 to 0.2 µM | 0.201 to 1 µM | <20 fold
CC/C=C\CC(=O)Nc1cc(Nc2nccc(-n3cc(CN(C)C)c(-c4ccccc4)n3)n2)c(OC)cc1N1CCOCC1 [Compound 156, (Z)—N-(5-(4-(4-((dimethylamino)methyl)-3-phenyl-1H-pyrazol-1-yl)pyrimidin-2-ylamino)-4-methoxy-2-morpholinophenyl)hex-3-enamide, reference compound] | – | > 1 µM | > 1 µM | 0.201 to 1 µM | 0.02 to 0.2 µM | > 1 µM | > 1 µM | <20 fold | > 1 µM | > 1 µM | <20 fold
C=CC(=O)Nc1cc(Nc2ncc(C)c(-n3cc(CN4CCC4)cn3)n2)c(OC)cc1C1=CCN(C)CC1 [Compound 64, N-(5-(4-(4-(azetidin-1-ylmethyl)-1H-pyrazol-1-yl)-5-methylpyrimidin-2-ylamino)-4-methoxy-2-(1-methyl-1,2,3,6-tetrahydropyridin-4-yl)phenyl)acrylamide] | < 0.02 µM | < 0.02 µM | 0.02 to 0.2 µM | < 0.02 µM | < 0.02 µM | > 1 µM | – | – | – | – | –
C=CC(=O)Nc1cc(Nc2ncc(F)c(-n3cc(CN(C)C)c(-c4ccoc4)c3)n2)c(OC)cc1N1CCOCC1 [Compound 131, N-(5-(4-(3-((dimethylamino)methyl)-4-(furan-3-yl)-1H-pyrrol-1-yl)-5-fluoropyrimidin-2-ylamino)-4-methoxy-2-morpholinophenyl)acrylamide] | < 0.02 µM | < 0.02 µM | < 0.02 µM | < 0.02 µM | < 0.02 µM | 0.201 to 1 µM | – | – | – | – | –
C=CC(=O)Nc1cc(Nc2nccc(-n3cc(CN4CCC4)c(C4CC4)n3)n2)c(OC)cc1N1CCC1 [Compound 139, N-(2-(azetidin-1-yl)-5-(4-(4-(azetidin-1-ylmethyl)-3-cyclopropyl-1H-pyrazol-1-yl)pyrimidin-2-ylamino)-4-methoxyphenyl)acrylamide] | < 0.02 µM | < 0.02 µM | < 0.02 µM | < 0.02 µM | < 0.02 µM | > 1 µM | – | – | – | – | –
CC/C=C/C(=O)Nc1cc(Nc2nccc(-n3cc(CN(C)C)c(-c4ccccc4)n3)n2)c(OC)cc1N1CCOCC1 [Compound 155, (E)-N-(5-(4-(4-((dimethylamino)methyl)-3-phenyl-1H-pyrazol-1-yl)pyrimidin-2-ylamino)-4-methoxy-2-morpholinophenyl)pent-2-enamide, reference compound] | – | – | – | – | – | – | > 1 µM | <20 fold | 0.201 to 1 µM | 0.201 to 1 µM | <20 fold
C=CC(=O)Nc1cc(Nc2nccc(-n3cc(CN(C)C)c(C4CC4)n3)n2)c(OC)cc1N1CCN(C(C)=O)CC1 [Compound 129, N-(2-(4-acetylpiperazin-1-yl)-5-(4-(3-cyclopropyl-4-((dimethylamino)methyl)-1H-pyrazol-1-yl)pyrimidin-2-ylamino)-4-methoxyphenyl)acrylamide] | < 0.02 µM | < 0.02 µM | < 0.02 µM | < 0.02 µM | < 0.02 µM | 0.201 to 1 µM | – | – | – | – | –
C=CC(=O)Nc1cc(Nc2ncc(C)c(-n3cc(CN(C)C)c(-c4ccccc4)n3)n2)c(OC)cc1N1CCOCC1 [Compound 120, N-(5-(4-(4-((dimethylamino)methyl)-3-phenyl-1H-pyrazol-1-yl)-5-methylpyrimidin-2-ylamino)-4-methoxy-2-morpholinophenyl)acrylamide] | < 0.02 µM | < 0.02 µM | < 0.02 µM | < 0.02 µM | < 0.02 µM | 0.02 to 0.2 µM | – | – | – | – | –
C=CC(=O)Nc1cc(Nc2nccc(-n3cc(CN(C)C)c(-c4cccs4)n3)n2)c(OC)cc1N1CCOCC1 [Compound 88, N-(5-(4-(4-((dimethylamino)methyl)-3-(thiophen-2-yl)-1H-pyrazol-1-yl)pyrimidin-2-ylamino)-4-methoxy-2-morpholinophenyl)acrylamide] | < 0.02 µM | < 0.02 µM | < 0.02 µM | < 0.02 µM | < 0.02 µM | 0.201 to 1 µM | – | – | – | – | –
C=CC(=O)Nc1cc(Nc2nccc(-n3cc(CN4CCC4)c(-c4ccccc4)n3)n2)c(OC)cc1N1CCC1 [Compound 87, N-(2-(azetidin-1-yl)-5-(4-(4-(azetidin-1-ylmethyl)-3-phenyl-1H-pyrazol-1-yl)pyrimidin-2-ylamino)-4-methoxyphenyl)acrylamide] | < 0.02 µM | < 0.02 µM | < 0.02 µM | < 0.02 µM | < 0.02 µM | > 1 µM | – | – | – | – | –
C=CC(=O)Nc1cc(Nc2nccc(-n3cc(CN(C)C)c(-c4ccccc4)n3)n2)c(OC)cc1N1CCN(C(C)=O)CC1 [Compound 135, N-(2-(4-acetylpiperazin-1-yl)-5-(4-(4-((dimethylamino)methyl)-3-phenyl-1H-pyrazol-1-yl)pyrimidin-2-ylamino)-4-methoxyphenyl)acrylamide] | < 0.02 µM | < 0.02 µM | < 0.02 µM | < 0.02 µM | < 0.02 µM | > 1 µM | – | – | – | – | –
Cc1cn(-c2ccnc(Nc3ccc(-c4ccccc4)c(C)c3)n2)cc1CN1CC(O)C1 [Compound 150, 1-((4-methyl-1-(2-(2-methylbiphenyl-4-ylamino)pyrimidin-4-yl)-1H-pyrrol-3-yl)methyl)azetidin-3-ol, reference compound] | > 1 µM | > 1 µM | > 1 µM | 0.201 to 1 µM | > 1 µM | > 1 µM | – | – | – | – | –
C=CC(=O)Nc1cc(Nc2nccc(-n3cc(CN(C)C)c(-c4ccccc4)n3)n2)c(OC)cc1N(C)CCOC [Compound 94] | < 0.02 µM | < 0.02 µM | < 0.02 µM | < 0.02 µM | < 0.02 µM | > 1 µM | – | – | – | – | –
C=CC(=O)Nc1cc(Nc2nccc(-n3cc(CN4CCC4)c(C)n3)n2)c(OC)cc1C1=CCN(C)CC1 [Compound 59, N-(5-(4-(4-(azetidin-1-ylmethyl)-3-methyl-1H-pyrazol-1-yl)pyrimidin-2-ylamino)-4-methoxy-2-(1-methyl-1,2,3,6-tetrahydropyridin-4-yl)phenyl)acrylamide] | < 0.02 µM | < 0.02 µM | < 0.02 µM | < 0.02 µM | < 0.02 µM | > 1 µM | – | – | – | – | –
C=CC(=O)Nc1cc(Nc2ncc(C)c(-n3cc(CN4CC(O)C4)c(C)n3)n2)c(OC)cc1N1CCCCC1 [Compound 30, N-(5-(4-(4-((3-hydroxyazetidin-1-yl)methyl)-3-methyl-1H-pyrazol-1-yl)-5-methylpyrimidin-2-ylamino)-4-methoxy-2-(piperidin-1-yl)phenyl)acrylamide] | < 0.02 µM | < 0.02 µM | < 0.02 µM | < 0.02 µM | < 0.02 µM | 0.02 to 0.2 µM | – | – | – | – | –
C=CC(=O)Nc1cc(Nc2nccc(-n3cc(CN4CCC4)c(-c4ccccc4)n3)n2)c(OC)cc1N1CCN(C(C)=O)CC1 [Compound 134, N-(2-(4-acetylpiperazin-1-yl)-5-(4-(4-(azetidin-1-ylmethyl)-3-phenyl-1H-pyrazol-1-yl)pyrimidin-2-ylamino)-4-methoxyphenyl)acrylamide] | < 0.02 µM | < 0.02 µM | < 0.02 µM | < 0.02 µM | < 0.02 µM | 0.201 to 1 µM | – | – | – | – | –
C=CC(=O)Nc1cc(Nc2ncc(C)c(-n3cc(CN4C[C@H](O)[C@H](OC)C4)cn3)n2)c(OC)cc1N(C)CCN(C)C [Compound 43, N-(2-((2-(dimethylamino)ethyl)(methyl)amino)-5-(4-(4-(((3S,4R)-3-hydroxy-4-methoxypyrrolidin-1-yl)methyl)-1H-pyrazol-1-yl)-5-methylpyrimidin-2-ylamino)-4-methoxyphenyl)acrylamide] | < 0.02 µM | < 0.02 µM | < 0.02 µM | < 0.02 µM | < 0.02 µM | > 1 µM | – | – | – | – | –

Source: USRE50528E1, “Compounds and compositions for modulating EGFR mutant kinase activities” (Yuhan Corporation, priority 2014, dated 2025)
